Laboratory results: patent publication US20230085307A1, “PYRIDAZINONE COMPOUND AND HERBICIDE” (NISSAN CHEMICAL CORPORATION, priority 2019, published 2023)

Legend:
late watergrass = assay: Test Example 1: herbicidal activity, application before weed generation under submerged conditions (Table 16, symbol A); assay type: in vivo, late watergrass (Echinochloa oryzicola); details: 320 g/ha applied herbicide
Method in brief: (§1)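 Submerged Wagner pots (alluvial soil, 4 cm water) sown with weed seeds and planted with 2.5-leaf rice seedlings; emulsifiable concentrate diluted in water applied to water surface on sowing day. Held in greenhouse at 25-30 °C; injury scored 0-5 by herbicidal rate after three weeks.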

Japanese bulrush = assay: Test Example 1: herbicidal activity, application before weed generation under submerged conditions (Table 16, symbol B); assay type: in vivo, Japanese bulrush (Schoenoplectus juncoides); details: 320 g/ha applied herbicide
Method in brief: as §1

oval-leafed pondweed = assay: Test Example 1: herbicidal activity, application before weed generation under submerged conditions (Table 16, symbol C); assay type: in vivo, oval-leafed pondweed (Monochoria vaginalis); details: 320 g/ha applied herbicide
Method in brief: as §1

barnyard grass [1] = assay: Test Example 3: herbicidal effect by foliage application, Wagner pot (Table 18, symbol H); assay type: in vivo, barnyard grass (Echinochloa crus-galli); details: amount of applied herbicide 320 g/ha
Method in brief: (§2)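 Plants were sown in alluvial soil held under 0.1–0.5 cm standing water and grown 14 days in a greenhouse at 25–30 °C. An emulsifiable formulation, water-diluted to the set dose, was then sprayed onto the foliage, and effects were scored three weeks later using previously defined criteria.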

Chinese sprangletop = assay: Test Example 3: herbicidal effect by foliage application, Wagner pot (Table 18, symbol D); assay type: in vivo, chinese sprangletop (Leptochloa chinensis); details: amount of applied herbicide 320 g/ha
Method in brief: as §2

rice flat sedge = assay: Test Example 3: herbicidal effect by foliage application, Wagner pot (Table 18, symbol E); assay type: in vivo, rice flat sedge (Cyperus iria); details: amount of applied herbicide 320 g/ha
Method in brief: as §2

southern crabgrass [2] = assay: Test Example 4: herbicidal effect by soil treatment (Table 19, symbol F); assay type: in vivo, southern crabgrass (Digitaria ciliaris); details: amount of applied herbicide 320 g/ha
Method in brief: (§3)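 Step 1: sow seeds in sterilized diluvial soil, cover ~1.5 cm. Step 2: spray diluted emulsion onto soil surface at predetermined rate. Step 3: greenhouse, 25–30° C, three weeks. Step 4: grade effect on each plant by earlier criteria.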

green foxtail [3] = assay: Test Example 4: herbicidal effect by soil treatment (Table 19, symbol G); assay type: in vivo, green foxtail (Setaria viridis); details: amount of applied herbicide 320 g/ha
Method in brief: as §3

barnyard grass [4] = assay: Test Example 4: herbicidal effect by soil treatment (Table 19, symbol H); assay type: in vivo, barnyard grass (Echinochloa crus-galli); details: amount of applied herbicide 320 g/ha
Method in brief: as §3

wild oat [5] = assay: Test Example 4: herbicidal effect by soil treatment (Table 19, symbol I); assay type: in vivo, wild oat (Avena fatua); details: amount of applied herbicide 320 g/ha
Method in brief: as §3

blackgrass [6] = assay: Test Example 4: herbicidal effect by soil treatment (Table 19, symbol J); assay type: in vivo, blackgrass (Alopecurus myosuroides); details: amount of applied herbicide 320 g/ha
Method in brief: as §3

Italian ryegrass [7] = assay: Test Example 4: herbicidal effect by soil treatment (Table 19, symbol K); assay type: in vivo, Italian ryegrass (Lolium multiflorum); details: amount of applied herbicide 320 g/ha
Method in brief: as §3

windgrass [8] = assay: Test Example 4: herbicidal effect by soil treatment (Table 19, symbol L); assay type: in vivo, windgrass (Apera spica-venti); details: amount of applied herbicide 320 g/ha
Method in brief: as §3

velvetleaf [9] = assay: Test Example 4: herbicidal effect by soil treatment (Table 19, symbol M); assay type: in vivo, velvetleaf (Abutilon theophrasti); details: amount of applied herbicide 320 g/ha
Method in brief: as §3

redroot pigweed [10] = assay: Test Example 4: herbicidal effect by soil treatment (Table 19, symbol N); assay type: in vivo, redroot pigweed (Amaranthus retroflexus); details: amount of applied herbicide 320 g/ha
Method in brief: as §3

lambsquarters [11] = assay: Test Example 4: herbicidal effect by soil treatment (Table 19, symbol O); assay type: in vivo, lambsquarters (Chenopodium album); details: amount of applied herbicide 320 g/ha
Method in brief: as §3

chickweed [12] = assay: Test Example 4: herbicidal effect by soil treatment (Table 19, symbol P); assay type: in vivo, common chickweed (Stellaria media); details: amount of applied herbicide 320 g/ha
Method in brief: as §3

persian speedwell [13] = assay: Test Example 4: herbicidal effect by soil treatment (Table 19, symbol R); assay type: in vivo, Persian speedwell (Veronica persica); details: amount of applied herbicide 320 g/ha
Method in brief: as §3

southern crabgrass [14] = assay: Test Example 5: herbicidal effect by foliage application, plastic box (Table 20, symbol F); assay type: in vivo, southern crabgrass (Digitaria ciliaris); details: foliage application, 320 g/ha, evaluated three weeks after application
Method in brief: (§4)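 Foliar spray test: emulsion formulation diluted in water to a set application rate, sprayed onto 14-day-old plants raised in diluvial soil at 25° C to 30° C under glass. Both herbicidal effect and crop effect rated visually three weeks later.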

green foxtail [15] = assay: Test Example 5: herbicidal effect by foliage application, plastic box (Table 20, symbol G); assay type: in vivo, green foxtail (Setaria viridis); details: foliage application, 320 g/ha, evaluated three weeks after application
Method in brief: as §4

barnyard grass [16] = assay: Test Example 5: herbicidal effect by foliage application, plastic box (Table 20, symbol H); assay type: in vivo, barnyard grass (Echinochloa crus-galli); details: foliage application, 320 g/ha, evaluated three weeks after application
Method in brief: as §4

wild oat [17] = assay: Test Example 5: herbicidal effect by foliage application, plastic box (Table 20, symbol I); assay type: in vivo, wild oat (Avena fatua); details: foliage application, 320 g/ha, evaluated three weeks after application
Method in brief: as §4

blackgrass [18] = assay: Test Example 5: herbicidal effect by foliage application, plastic box (Table 20, symbol J); assay type: in vivo, blackgrass (Alopecurus myosuroides); details: foliage application, 320 g/ha, evaluated three weeks after application
Method in brief: as §4

Italian ryegrass [19] = assay: Test Example 5: herbicidal effect by foliage application, plastic box (Table 20, symbol K); assay type: in vivo, Italian ryegrass (Lolium multiflorum); details: foliage application, 320 g/ha, evaluated three weeks after application
Method in brief: as §4

windgrass [20] = assay: Test Example 5: herbicidal effect by foliage application, plastic box (Table 20, symbol L); assay type: in vivo, windgrass (Apera spica-venti); details: foliage application, 320 g/ha, evaluated three weeks after application
Method in brief: as §4

velvetleaf [21] = assay: Test Example 5: herbicidal effect by foliage application, plastic box (Table 20, symbol M); assay type: in vivo, velvetleaf (Abutilon theophrasti); details: foliage application, 320 g/ha, evaluated three weeks after application
Method in brief: as §4

redroot pigweed [22] = assay: Test Example 5: herbicidal effect by foliage application, plastic box (Table 20, symbol N); assay type: in vivo, redroot pigweed (Amaranthus retroflexus); details: foliage application, 320 g/ha, evaluated three weeks after application
Method in brief: as §4

lambsquarters [23] = assay: Test Example 5: herbicidal effect by foliage application, plastic box (Table 20, symbol O); assay type: in vivo, lambsquarters (Chenopodium album); details: foliage application, 320 g/ha, evaluated three weeks after application
Method in brief: as §4

chickweed [24] = assay: Test Example 5: herbicidal effect by foliage application, plastic box (Table 20, symbol P); assay type: in vivo, common chickweed (Stellaria media); details: foliage application, 320 g/ha, evaluated three weeks after application
Method in brief: as §4

persian speedwell [25] = assay: Test Example 5: herbicidal effect by foliage application, plastic box (Table 20, symbol R); assay type: in vivo, Persian speedwell (Veronica persica); details: foliage application, 320 g/ha, evaluated three weeks after application
Method in brief: as §4

Row | Compound | Herbicidal effect on A: late watergrass (grade 0-5) (late watergrass) | Herbicidal effect on B: Japanese bulrush (grade 0-5) (Japanese bulrush) | Herbicidal effect on C: oval-leafed pondweed (grade 0-5) (oval-leafed pondweed) | herbicidal effect on H: barnyard grass (barnyard grass [1]) | herbicidal effect on D: Chinese sprangletop (Chinese sprangletop) | herbicidal effect on E: rice flat sedge (rice flat sedge) | F: southern crabgrass, herbicidal effect rating (southern crabgrass [2]) | G: green foxtail, herbicidal effect rating (green foxtail [3]) | H: barnyard grass, herbicidal effect rating (barnyard grass [4]) | I: wild oat, herbicidal effect rating (wild oat [5]) | J: blackgrass, herbicidal effect rating (blackgrass [6]) | K: Italian ryegrass, herbicidal effect rating (Italian ryegrass [7]) | L: windgrass, herbicidal effect rating (windgrass [8]) | M: velvetleaf, herbicidal effect rating (velvetleaf [9]) | N: redroot pigweed, herbicidal effect rating (redroot pigweed [10]) | O: lambsquarters, herbicidal effect rating (lambsquarters [11]) | P: chickweed, herbicidal effect rating (chickweed [12]) | R: persian speedwell, herbicidal effect rating (persian speedwell [13]) | herbicidal effect on F: southern crabgrass (criteria 0-5) (southern crabgrass [14]) | herbicidal effect on G: green foxtail (criteria 0-5) (green foxtail [15]) | also measured
1 | COc1cc(F)ccc1-c1sc2ccc(NS(C)(=O)=O)cc2c1-c1c(O)c(C)nn(C)c1=O [2-183] | 2 (Herbicidal rate of 20% or more and less than 40%) | 0 (Herbicidal rate of 5% or less (almost no effect)) | 0 (Herbicidal rate of 5% or less (almost no effect)) | 4 (Herbicidal rate of 70% or more and less than 90%) | 3 (Herbicidal rate of 40% or more and less than 70%) | 0 (Herbicidal rate of 5% or less (almost no effect)) | 0 (Herbicidal rate of 5% or less (almost no effect)) | 0 (Herbicidal rate of 5% or less (almost no effect)) | 0 (Herbicidal rate of 5% or less (almost no effect)) | 0 (Herbicidal rate of 5% or less (almost no effect)) | 0 (Herbicidal rate of 5% or less (almost no effect)) | 0 (Herbicidal rate of 5% or less (almost no effect)) | 0 (Herbicidal rate of 5% or less (almost no effect)) | 0 (Herbicidal rate of 5% or less (almost no effect)) | 0 (Herbicidal rate of 5% or less (almost no effect)) | 0 (Herbicidal rate of 5% or less (almost no effect)) | 3 (Herbicidal rate of 40% or more and less than 70%) | 3 (Herbicidal rate of 40% or more and less than 70%) | 0 (Herbicidal rate of 5% or less (almost no effect)) | 0 (Herbicidal rate of 5% or less (almost no effect)) | herbicidal effect on H: barnyard grass (criteria 0-5) (barnyard grass [16]): 0 (Herbicidal rate of 5% or less (almost no effect)); herbicidal effect on I: wild oat (criteria 0-5) (wild oat [17]): 0 (Herbicidal rate of 5% or less (almost no effect)); herbicidal effect on J: blackgrass (criteria 0-5) (blackgrass [18]): 4 (Herbicidal rate of 70% or more and less than 90%); herbicidal effect on K: Italian ryegrass (criteria 0-5) (Italian ryegrass [19]): 0 (Herbicidal rate of 5% or less (almost no effect)); herbicidal effect on L: windgrass (criteria 0-5) (windgrass [20]): 3 (Herbicidal rate of 40% or more and less than 70%); herbicidal effect on M: velvetleaf (criteria 0-5) (velvetleaf [21]): 1 (Herbicidal rate of 5% or more and less than 20%); herbicidal effect on N: redroot pigweed (criteria 0-5) (redroot pigweed [22]): 1 (Herbicidal rate of 5% or more and less than 20%); herbicidal effect on O: lambsquarters (criteria 0-5) (lambsquarters [23]): 3 (Herbicidal rate of 40% or more and less than 70%); herbicidal effect on P: chickweed (criteria 0-5) (chickweed [24]): 4 (Herbicidal rate of 70% or more and less than 90%); herbicidal effect on R: persian speedwell (criteria 0-5) (persian speedwell [25]): 4 (Herbicidal rate of 70% or more and less than 90%)
2 | Cc1nn(C)c(=O)c(-c2c(-c3cccc(F)c3)sc3ccc(F)cc23)c1O [2-201] | 2 (Herbicidal rate of 20% or more and less than 40%) | 2 (Herbicidal rate of 20% or more and less than 40%) | 0 (Herbicidal rate of 5% or less (almost no effect)) | 5 (Herbicidal rate of 90% or more (almost completely withered)) | 4 (Herbicidal rate of 70% or more and less than 90%) | 5 (Herbicidal rate of 90% or more (almost completely withered)) | 3 (Herbicidal rate of 40% or more and less than 70%) | 3 (Herbicidal rate of 40% or more and less than 70%) | 4 (Herbicidal rate of 70% or more and less than 90%) | 0 (Herbicidal rate of 5% or less (almost no effect)) | 0 (Herbicidal rate of 5% or less (almost no effect)) | 2 (Herbicidal rate of 20% or more and less than 40%) | 0 (Herbicidal rate of 5% or less (almost no effect)) | 4 (Herbicidal rate of 70% or more and less than 90%) | 5 (Herbicidal rate of 90% or more (almost completely withered)) | 4 (Herbicidal rate of 70% or more and less than 90%) | 3 (Herbicidal rate of 40% or more and less than 70%) | 0 (Herbicidal rate of 5% or less (almost no effect)) | 4 (Herbicidal rate of 70% or more and less than 90%) | 4 (Herbicidal rate of 70% or more and less than 90%) | herbicidal effect on H: barnyard grass (criteria 0-5) (barnyard grass [16]): 5 (Herbicidal rate of 90% or more (almost completely withered)); herbicidal effect on I: wild oat (criteria 0-5) (wild oat [17]): 0 (Herbicidal rate of 5% or less (almost no effect)); herbicidal effect on J: blackgrass (criteria 0-5) (blackgrass [18]): 0 (Herbicidal rate of 5% or less (almost no effect)); herbicidal effect on K: Italian ryegrass (criteria 0-5) (Italian ryegrass [19]): 4 (Herbicidal rate of 70% or more and less than 90%); herbicidal effect on L: windgrass (criteria 0-5) (windgrass [20]): 4 (Herbicidal rate of 70% or more and less than 90%); herbicidal effect on M: velvetleaf (criteria 0-5) (velvetleaf [21]): 5 (Herbicidal rate of 90% or more (almost completely withered)); herbicidal effect on N: redroot pigweed (criteria 0-5) (redroot pigweed [22]): 5 (Herbicidal rate of 90% or more (almost completely withered)); herbicidal effect on O: lambsquarters (criteria 0-5) (lambsquarters [23]): 5 (Herbicidal rate of 90% or more (almost completely withered)); herbicidal effect on P: chickweed (criteria 0-5) (chickweed [24]): 5 (Herbicidal rate of 90% or more (almost completely withered)); herbicidal effect on R: persian speedwell (criteria 0-5) (persian speedwell [25]): 5 (Herbicidal rate of 90% or more (almost completely withered))
